Target: T1, rat CB2 (Rattus norvegicus, UniProt Q9QZN9)
T1 sequence (Q9QZN9 1-360): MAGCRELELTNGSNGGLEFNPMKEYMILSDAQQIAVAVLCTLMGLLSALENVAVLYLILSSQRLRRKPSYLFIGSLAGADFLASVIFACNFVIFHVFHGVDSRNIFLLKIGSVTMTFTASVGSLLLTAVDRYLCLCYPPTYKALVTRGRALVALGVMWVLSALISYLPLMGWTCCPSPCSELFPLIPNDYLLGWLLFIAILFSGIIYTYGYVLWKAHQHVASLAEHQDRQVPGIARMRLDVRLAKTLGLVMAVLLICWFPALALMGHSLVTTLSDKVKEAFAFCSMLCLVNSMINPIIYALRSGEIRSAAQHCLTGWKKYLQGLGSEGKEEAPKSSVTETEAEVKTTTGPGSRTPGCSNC
Assay: [3H]CP55,940 radioligand competition binding, membranes of HEK/GIRK cells expressing rat CB2
Set-up: expressed in transfected cells; host or cells: HEK293 cells stably co-expressing GIRK1/2 channels
Excerpt: Agonists that bind to the receptor at the site occupied by the endogenous ligand (2-AG in this case) are considered orthosteric agonists. It is also possible for an agonist to bind and activate a receptor via a site other than the orthosteric site; these ligands are classified as allosteric agonists. To characterize the nature of the agonist activity of mycophenolate mofetil, we tested its ability to bind to the receptor in equilibrium binding assays using membranes harvested from cells expressing rCB2 using the radioligand [^3H]CP55,940 [40, 60]. CP55,940 has an affinity for both CB1 and CB2 receptors in the low nM range and is reported to bind to the site occupied by 2-AG [61].
Competition binding concentration–response curves were obtained in the presence of 0.5 nM [^3H]CP55,940 using membranes harvested from HEK/GIRK cells expressing rCB2. Data represent the mean ± SEM of three independent experiments run in triplicate. Data are plotted as a percentage of specific [^3H]CP55,940 binding. Non-specific binding was determined in the presence of 10 µM CP55,940.
Membranes were made from HEK/GIRK cells stably expressing rat CB2. Radioligand competition binding assays were performed as previously described, with minor modifications. In brief, compounds were serially diluted into assay buffer with 0.1% bovine serum albumin (BSA) and added to each well of a 96-well plate, along with 20 μg/well cell membrane and approximately 500 pM [^3H]-CP55,940 (specific activity = 104 Ci/mmol, PerkinElmer, Waltham, MA, USA). Following a 3-h incubation period on a shaker at room temperature, membrane-bound ligand was separated from free ligand by filtration through glass fiber 96-well filter plates (Unifilter-96, GF/B; PerkinElmer, Waltham, MA, USA). Forty microliters of scintillation fluid were added to each well, and membrane-bound radioactivity was determined by scintillation counting (Microbeta2; Revvity, Waltham, MA, USA). Nonspecific binding was determined using 10 μM of cold CP55,940.

Structure (SMILES)	Ki [µM]	rCB2 Binding Affinity pKi ± SEM (0.5 nM [3H]CP55,940, equilibrium)
CCCCC/C=C\C/C=C\C/C=C\C/C=C\CCCC(=O)OC(CO)CO [2-AG, 2-Arachidonoylglycerol]	3.47	
COc1ccc(C(=O)c2c(C)n(CCN3CCOCC3)c3cc(I)ccc23)cc1 [AM630]		7.61 ± 0.29
